experiment: recombinant UMI read abundance after kanamycin selection (control-corrected) (log10(CPM+1)); higher = more efficient recombination; extreme values may be limits of the assay; sequences stand for … in AGTGCAGAGAAAATCGGCCAGTTTTCTCTGCCTGCAGTCCGCATGCCGTGGGACCCCTTGGGTTCTAACCTGTTGCCTAGATTTATGCAGCGGACTGCCTTTCTCCCAAAGTGATAAACCGG…AGGTTGGTTTCACT; site = the 11-nt donor
Summary of the method: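 Two replicates each of selected and unselected plating were used in this pooled Escherichia coli screen of donor and donor-binding-loop pairs for the IS621 bridge recombinase. Selection was with IPTG (0.07 mM) and kanamycin. Counts of recombinant UMIs, amplified across the donor–target junction, were converted to CPM, averaged, scaled by control-derived factors and reported as log10(CPM+1).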
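Further: IS621 bridge recombinase in Escherichia coli cells against a fixed T5 target plasmid.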

Row | Sequence | recombinant UMI read abundance (log10)
1 | CGGAAGACATGGACCGGTTTTCCCGGTAATCCGTATTTGCA (site AGGAAGACTTG) | 0.742
2 | CGGAAGACATGGACCGGTTTTCCCGGTAATCCGTATTTGCA (site CGGAAGACTTG) | 1.73
3 | CGGAAGACATGGACCGGTTTTCCCGGTAATCCGTATTTGCA (site GGGAAGACTTG) | 0
4 | CGGAAGACATGGACCGGTTTTCCCGGTAATCCGTATTTGCA (site TGGAAGACTTG) | 0.259
5 | CGGAATACATGGACCGGTTTTCCCGGTAATCCGTATTTGTC (site CGGAATACTGA) | 1.64
6 | CGGAATACATGGACCGGTTTTCCCGGTAATCCGTATTTGTC (site CGGAATCCTAA) | 0.0129
7 | CGGAATCCATGGACCGGTTTTCCCGGTAATCCGTATTTGGG (site CGGAATCCTAA) | 0
8 | CGGAATCCATGGACCGGTTTTCCCGGTAATCCGTATTTGGG (site CGGAATCCTCC) | 0.0126
9 | CGGAATTCATGGACCGGTTTTCCCGGTAATCCGTATTTGCT (site CGGAATCCTAA) | 0.00849
10 | CGGAATTCATGGACCGGTTTTCCCGGTAATCCGTATTTGCT (site CGGAATTCTAG) | 2.45
11 | CGGACATCATGGACCGGTTTTCCCGGTAATCCGTATTTGAT (site CGGACATCTAA) | 0.359
12 | CGGACATCATGGACCGGTTTTCCCGGTAATCCGTATTTGAT (site CGGACATCTAC) | 0.605
13 | CGGACATCATGGACCGGTTTTCCCGGTAATCCGTATTTGAT (site CGGACATCTAG) | 0
14 | CGGACATCATGGACCGGTTTTCCCGGTAATCCGTATTTGAT (site CGGACATCTAT) | 1.84
15 | CGGACATCATGGACCGGTTTTCCCGGTAATCCGTATTTGCC (site CGGACATCTAG) | 0.305
16 | CGGACATCATGGACCGGTTTTCCCGGTAATCCGTATTTGCC (site CGGACATCTCG) | 0.00908
17 | CGGACATCATGGACCGGTTTTCCCGGTAATCCGTATTTGCC (site CGGACATCTGG) | 2.66
18 | CGGACATCATGGACCGGTTTTCCCGGTAATCCGTATTTGCC (site CGGACATCTTG) | 0
19 | CGGACATCATGGACCGGTTTTCCCGGTAATCCGTATTTGCT (site AGGACATCTAG) | 0.695
20 | CGGACATCATGGACCGGTTTTCCCGGTAATCCGTATTTGCT (site CAGACATCTAG) | 1.53
21 | CGGACATCATGGACCGGTTTTCCCGGTAATCCGTATTTGCT (site CCGACATCTAG) | 0.954
22 | CGGACATCATGGACCGGTTTTCCCGGTAATCCGTATTTGCT (site CGAACATCTAG) | 1.51
23 | CGGACATCATGGACCGGTTTTCCCGGTAATCCGTATTTGCT (site CGCACATCTAG) | 0
24 | CGGACATCATGGACCGGTTTTCCCGGTAATCCGTATTTGCT (site CGGAAATCTAG) | 0
25 | CGGACATCATGGACCGGTTTTCCCGGTAATCCGTATTTGCT (site CGGACAACTAG) | 0.552

Row | Sequence | recombinant UMI read abundance (log10)
26 | CGGACATCATGGACCGGTTTTCCCGGTAATCCGTATTTGCT (site CGGACACCTAG) | 0
27 | CGGACATCATGGACCGGTTTTCCCGGTAATCCGTATTTGCT (site CGGACAGCTAG) | 0.00346
28 | CGGACATCATGGACCGGTTTTCCCGGTAATCCGTATTTGCT (site CGGACATCTAA) | 0
29 | CGGACATCATGGACCGGTTTTCCCGGTAATCCGTATTTGCT (site CGGACATCTAC) | 0
30 | CGGACATCATGGACCGGTTTTCCCGGTAATCCGTATTTGCT (site CGGACATCTAG) | 2.42
31 | CGGACATCATGGACCGGTTTTCCCGGTAATCCGTATTTGCT (site CGGACATCTAT) | 1.21
32 | CGGACATCATGGACCGGTTTTCCCGGTAATCCGTATTTGCT (site CGGACATCTCG) | 0.0134
33 | CGGACATCATGGACCGGTTTTCCCGGTAATCCGTATTTGCT (site CGGACATCTGG) | 0.0128
34 | CGGACATCATGGACCGGTTTTCCCGGTAATCCGTATTTGCT (site CGGACATCTTG) | 0.756
35 | CGGACATCATGGACCGGTTTTCCCGGTAATCCGTATTTGCT (site CGGACCTCTAG) | 0.303
36 | CGGACATCATGGACCGGTTTTCCCGGTAATCCGTATTTGCT (site CGGACGTCTAG) | 0
37 | CGGACATCATGGACCGGTTTTCCCGGTAATCCGTATTTGCT (site CGGACTTCTAG) | 0.255
38 | CGGACATCATGGACCGGTTTTCCCGGTAATCCGTATTTGCT (site CGGAGATCTAG) | 0
39 | CGGACATCATGGACCGGTTTTCCCGGTAATCCGTATTTGCT (site CGGATATCTAG) | 1.9
40 | CGGACATCATGGACCGGTTTTCCCGGTAATCCGTATTTGCT (site CGGCCATCTAG) | 0.0134
41 | CGGACATCATGGACCGGTTTTCCCGGTAATCCGTATTTGCT (site CGGGCATCTAG) | 0
42 | CGGACATCATGGACCGGTTTTCCCGGTAATCCGTATTTGCT (site CGGTCATCTAG) | 0.746
43 | CGGACATCATGGACCGGTTTTCCCGGTAATCCGTATTTGCT (site CGTACATCTAG) | 1.54
44 | CGGACATCATGGACCGGTTTTCCCGGTAATCCGTATTTGCT (site CTGACATCTAG) | 1.34
45 | CGGACATCATGGACCGGTTTTCCCGGTAATCCGTATTTGCT (site GGGACATCTAG) | 0
46 | CGGACATCATGGACCGGTTTTCCCGGTAATCCGTATTTGCT (site TGGACATCTAG) | 0.773
47 | CGGACGACATGGACCGGTTTTCCCGGTAATCCGTATTTGGT (site CGGACGACTAC) | 1.25
48 | CGGACTGCATGGACCGGTTTTCCCGGTAATCCGTATTTGTT (site CGGAATCCTAA) | 0
49 | CGGACTGCATGGACCGGTTTTCCCGGTAATCCGTATTTGTT (site CGGACTGCTAA) | 2.12
50 | CGGACTTCATGGACCGGTTTTCCCGGTAATCCGTATTTGCT (site CGGACATCTAG) | 0.905

Row | Sequence | recombinant UMI read abundance (log10)
51 | CGGACTTCATGGACCGGTTTTCCCGGTAATCCGTATTTGCT (site CGGACCTCTAG) | 1.61
52 | CGGACTTCATGGACCGGTTTTCCCGGTAATCCGTATTTGCT (site CGGACGTCTAG) | 0
53 | CGGACTTCATGGACCGGTTTTCCCGGTAATCCGTATTTGCT (site CGGACTTCTAG) | 2.17
54 | CGGAGTACATGGACCGGTTTTCCCGGTAATCCGTATTTGTT (site CGGAATCCTAA) | 0
55 | CGGAGTACATGGACCGGTTTTCCCGGTAATCCGTATTTGTT (site CGGAGTACTAA) | 2.14
56 | CGGAGTCCATGGACCGGTTTTCCCGGTAATCCGTATTTGAT (site CGGAATCCTAA) | 0.0131
57 | CGGAGTCCATGGACCGGTTTTCCCGGTAATCCGTATTTGAT (site CGGAGTCCTAT) | 1.98
58 | CGGATATCATGGACCGGTTTTCCCGGTAATCCGTATTTGCT (site CGGAAATCTAG) | 0
59 | CGGATATCATGGACCGGTTTTCCCGGTAATCCGTATTTGCT (site CGGACATCTAG) | 0
60 | CGGATATCATGGACCGGTTTTCCCGGTAATCCGTATTTGCT (site CGGAGATCTAG) | 0
61 | CGGATATCATGGACCGGTTTTCCCGGTAATCCGTATTTGCT (site CGGATATCTAG) | 1.51
62 | CGGATGTCATGGACCGGTTTTCCCGGTAATCCGTATTTGTG (site CGGATGTCTCA) | 2.74
63 | CGGATTCCATGGACCGGTTTTCCCGGTAATCCGTATTTGTT (site CGGAATCCTAA) | 0.00458
64 | CGGATTCCATGGACCGGTTTTCCCGGTAATCCGTATTTGTT (site CGGACTCCTAA) | 0.0161
65 | CGGATTCCATGGACCGGTTTTCCCGGTAATCCGTATTTGTT (site CGGAGTCCTAA) | 0.0137
66 | CGGATTCCATGGACCGGTTTTCCCGGTAATCCGTATTTGTT (site CGGATTCCTAA) | 0.599
67 | CGGCAGGCATGGACCGGTTTTCCCGGTAATCCGTATTTGAT (site CGGCAGGCTAT) | 2.21
68 | CGGCATCCATGGACCGGTTTTCCCGGTAATCCGTATTTGGT (site CGGAATCCTAA) | 0
69 | CGGCATCCATGGACCGGTTTTCCCGGTAATCCGTATTTGGT (site CGGCATCCTAC) | 0.00636
70 | CGGCATCCATGGACCGGTTTTCCCGGTAATCCGTATTTGTT (site CGGAATCCTAA) | 0
71 | CGGCATCCATGGACCGGTTTTCCCGGTAATCCGTATTTGTT (site CGGCATCCTAA) | 0.467
72 | CGGCATCCATGGACCGGTTTTCCCGGTAATCCGTATTTGTT (site CGGGATCCTAA) | 0.0034
73 | CGGCATCCATGGACCGGTTTTCCCGGTAATCCGTATTTGTT (site CGGTATCCTAA) | 0.0136
74 | CGGCCAACATGGACCGGTTTTCCCGGTAATCCGTATTTGTC (site CGGCCAACTGA) | 1.56
75 | CGGCGCTCATGGACCGGTTTTCCCGGTAATCCGTATTTGAT (site CGGCGCTCTAT) | 2.65

Reference: the supplement of paper PMC11208160
